Laboratory results as given in US20250136634A1, “CAP ANALOG AND USE THEREOF” (SHANGHAI HONGENE BIOTECH CORPORATION, priority 2021, published 2025).

Tested on: Thermostable T7 RNA polymerase (NEB)
Conditions: Example 3, thermostable T7 RNA polymerase IVT at 50° C. for 2 hs, LC-MS
Method: The LC-MS analyses involved in determining capping efficiency in the following examples are as follows: • Equipment: Waters UPLC H-Class • Column: ACQUITY UPLC Oligonucleotide BEH C18, 2.1*150 mm • Column temperature: 75° C. • Mobile phase A: 200 mM hexafluoroisopropanol+8.15 mM triethylamine pH7.9 • Mobile phase B: methanol • Flow rate: 0.3 mL/min • Gradient:
Initial cap oligonucleotides are ^m7GpppApG, ^m7G pppA2′Ome PG (control), ^m7GBeta-D-LNApppA2′O-MOEpG, and ^m7GAlpha-L-LNApppA2′O-ethyl pG, respectively. • reacting at 50° C. for 2 hs, • adding DNase I (1U), and reacting at 37° C. for 30 mins. (5) Treatment with Antarctic Phosphatase:
For each tested initial cap oligonucleotide, the ratio of capped mRNA was assessed by analyzing liquid chromatography-mass spectrometry (LC-MS) results. In the experiment, a DNA probe complementary to the mRNA was used. Upon the hybridization of the DNA to the RNA, RNaseH specifically hydrolyzed the phosphodiester bond in the RNA to produce small fragments of RNAs with homogeneous 3′ end. The molecular weight and percentage of the small RNA fragments were determined by LC-MS, and were used to determine capping of the RNAs in the transcription reaction. Since the presence and absence of cap at 5′ end can be distinguished by the molecule weight, the capping efficiency can be determined via the molecule weight and percentage of trunked 5′ end-containing RNAs. In addition, from the calculation of the molecule weight, it can be determined that the caps added are the capping nucleotides.

Row | Substance | Capping efficiency [%]
1 | ^m7GAlpha-L-LNApppA2′O-ethyl pG | 63
2 | ^m7GBeta-D-LNApppA2′O-MOEpG | 70
3 | ^m7GpppA2′Ome pG [reference compound] | 95
4 | ^m7GpppApG [reference compound] | 93
